The results in this text go back to US5385894A, “Disubstituted 6-aminoquinazolinones” (Merck & Co., Inc., priority 1994, dated 1995).

A word on the logP: it is the decadic logarithm of the partition coefficient of the neutral form, usually between octanol and water. Low values mean lower lipophilicity, high ones higher lipophilicity. One may read the log P as the decadic logarithm of the partition coefficient of the neutral form, usually between octanol and water. Read a low log P as a more hydrophilic compound.

This series in a line: log P (Table 1). In kind it is physicochemical.
`CCCc1nc2ccc(N(Cc3ccccc3)C(=O)c3ccccn3)cc2c(=O)n1Cc1ccc(-c2ccccc2-c2nn[nH]n2)cc1` [Example 136] showed a logP of 3.8.

For the molecule `CCCc1nc2ccc(N(Cc3ccccn3)C(=O)c3ccccc3)cc2c(=O)n1Cc1ccc(-c2ccccc2-c2nn[nH]n2)cc1` [Example 137], the log partition coefficient (logP) turned out to be 3.4.

As for `CCCc1nc2ccc(N(Cc3ccncc3)C(=O)c3ccccc3)cc2c(=O)n1Cc1ccc(-c2ccccc2-c2nn[nH]n2)cc1` [Example 138], the logP was 3.4.

Consider `CCCc1nc2ccc(N(Cc3ccccc3)C(=O)c3ccncc3)cc2c(=O)n1Cc1ccc(-c2ccccc2-c2nn[nH]n2)cc1` [Example 139], for which the logP was determined as 3.7.

Consider `CCCc1nc2ccc(N(Cc3ccccc3)C(=O)c3ccccn3)cc2c(=O)n1Cc1ccc(-c2ccccc2-c2nn[nH]n2)cc1` [Example 140], for which the “log P” value was found to be 3.7.

Consider `CCCCN(C(=O)c1ccc(O)cc1)c1ccc2nc(CCC)n(Cc3ccc(-c4ccccc4-c4nn[nH]n4)cc3)c(=O)c2c1` [Example 144], for which the logP turned out to be 4.2.

Turning to `CCCc1nc2ccc(N(Cc3ccccn3)C(=O)c3ccncc3)cc2c(=O)n1Cc1ccc(-c2ccccc2-c2nn[nH]n2)cc1` [Example 145], the logP was found to be 2.7.

In turn, `CCCCCN(C(=O)c1ccc(OP(=O)(O)O)cc1)c1ccc2nc(CCC)n(Cc3ccc(-c4ccccc4-c4nn[nH]n4)cc3)c(=O)c2c1` [Example 146] gave a logP of 3.4.

As for `CCCc1nc2ccc(N(Cc3ccccc3)C(=O)c3ccc(O)cc3)cc2c(=O)n1Cc1ccc(-c2ccccc2-c2nn[nH]n2)cc1` [Example 147], the lipophilicity (logP) was 4.

For the molecule `CCCc1nc2ccc(N(Cc3ccccn3)C(=O)c3ccco3)cc2c(=O)n1Cc1ccc(-c2ccccc2-c2nn[nH]n2)cc1` [Example 148], the log partition coefficient (logP) turned out to be 3.2.

Consider `CCCOC(=O)N(Cc1ccncc1)c1ccc2nc(CCC)n(Cc3ccc(-c4ccccc4-c4nn[nH]n4)cc3)c(=O)c2c1` [Example 156], for which the logP came to 3.8.

`CCCOC(=O)N(Cc1cccnc1)c1ccc2nc(CCC)n(Cc3ccc(-c4ccccc4-c4nn[nH]n4)cc3)c(=O)c2c1` [Example 158] yielded a log partition coefficient (logP) of 3.8.

Regarding `CCCOC(=O)N(Cc1ccccn1)c1ccc2nc(CCC)n(Cc3ccc(-c4ccccc4-c4nn[nH]n4)cc3)c(=O)c2c1` [Example 159], the logP turned out to be 3.9.

On to `CCCc1nc2ccc(N(Cc3ccncc3)C(=O)OCCOC)cc2c(=O)n1Cc1ccc(-c2ccccc2-c2nn[nH]n2)cc1` [Example 160], for which the logP was determined as 2.7.

With `COCc1nc2ccc(N(C)C(=O)OCC(C)C)cc2c(=O)n1Cc1ccc(-c2ccccc2-c2nn[nH]n2)cc1` [Example 161], the logP was found to be 3.7.

For `CCCOC(=O)N(Cc1ccccn1)c1ccc2nc(COC)n(Cc3ccc(-c4ccccc4-c4nn[nH]n4)cc3)c(=O)c2c1` [Example 162], the logP turned out to be 3.3.

For the molecule `CCCc1nc2ccc(N(Cc3ccccn3)C(=O)OCC)cc2c(=O)n1Cc1ccc(-c2ccccc2-c2nn[nH]n2)cc1` [Example 164], the lipophilicity (logP) is 3.5.

As to `CCCOC(=O)N(Cc1ccc(N)cc1)c1ccc2nc(CCC)n(Cc3ccc(-c4ccccc4-c4nn[nH]n4)cc3)c(=O)c2c1` [Example 166], the lipophilicity (logP) was determined as 3.9.

The molecule `CCCc1nc2ccc(N(Cc3ccc(F)cc3)C(=O)N(C)C(C)C)cc2c(=O)n1Cc1ccc(-c2ccccc2-c2nn[nH]n2)cc1` [Example 174] displayed a logP of 4.8.

`CCCc1nc2ccc(N(Cc3ccccn3)C(=O)N(C)C(C)C)cc2c(=O)n1Cc1ccc(-c2ccccc2-c2nn[nH]n2)cc1` [Example 175]: the logP stood at 3.7.

`CCCc1nc2ccc(N(Cc3ccccc3)C(=O)c3ccccc3Oc3ccccc3)cc2c(=O)n1Cc1ccc(-c2ccccc2-c2nn[nH]n2)cc1` [Example 178] had a lipophilicity (logP) of 4.2.

Turning to `CCCc1nc2ccc(N(Cc3ccc(O)cc3)C(=O)c3ccccc3)cc2c(=O)n1Cc1ccc(-c2ccccc2-c2nn[nH]n2)cc1` [Example 179], the lipophilicity (logP) worked out at 3.6.

Molecule `CCCc1nc2ccc(N(Cc3ccccc3)C(=O)c3ccc(C(=O)O)cc3)cc2c(=O)n1Cc1ccc(-c2ccccc2-c2nn[nH]n2)cc1` [Example 180] gave a logP of 2.9.
